ChEMBL document CHEMBL1649146, “Contribution of the autolysin AtlA to the bactericidal activity of amoxicillin against Enterococcus faecalis JH2-2” (2009)
≈ marks a conversion by molar mass, not a printed value. Calls of active or inactive are those of the source. No cut-off for these calls is given here.

Assays:
Enterococcus faecalis [1] = assay: Antibacterial activity against Enterococcus faecalis JH2-2 by macrodilution method; format: functional
Enterococcus faecalis [2] = assay: Antibacterial activity against Enterococcus faecalis JH2-2 assessed as bacterial killing at 2 ug/ml by macrodilution method; format: functional, organism-based
Enterococcus faecalis [3] = assay: Antibacterial activity against Enterococcus faecalis JH2-2 assessed as decrease in decrease in bacterial count at 2 ug/ml after 3 hrs by macrodilution method; format: functional
Enterococcus faecalis [4] = assay: Antibacterial activity against atlA-deficient Enterococcus faecalis JH2-2 assessed as decrease in decrease in bacterial count at 2 ug/ml after 6 hrs by macrodilution method; format: functional
Enterococcus faecalis [5] = assay: Antibacterial activity against atlA-deficient Enterococcus faecalis JH2-2 assessed as bacterial killing at 2 ug/ml by macrodilution method; format: functional, organism-based
Enterococcus faecalis [6] = assay: Antibacterial activity against Enterococcus faecalis JH2-2 infected in New Zealand White rabbit assessed as bacterial count per gram vegetation at 50 mg/kg, im TID for 3 days administered 48 hrs post bacterial challenge (reference value: 9.40+/-0.62 log10 CFU/g); format: functional; conditions: route intramuscular
Enterococcus faecalis [7] = assay: Ratio of MBC to MIC in atlA-deficient Enterococcus faecalis JH2-2; format: functional
Enterococcus faecalis [8] = assay: Antibacterial activity against atlA-deficient Enterococcus faecalis JH2-2 assessed as decrease in bacterial count at 2 ug/ml by macrodilution method; format: functional; parameters: scale not given: the % may be the effect or the level left
Enterococcus faecalis [9] = assay: Antibacterial activity against Enterococcus faecalis JH2-2 assessed as decrease in decrease in bacterial count at 2 ug/ml after 24 hrs by macrodilution method; format: functional
Enterococcus faecalis [10] = assay: Ratio of MBC to MIC in Enterococcus faecalis JH2-2; format: functional
Enterococcus faecalis [11] = assay: Antibacterial activity against Enterococcus faecalis JH2-2 assessed as decrease in decrease in bacterial count at 2 ug/ml after 6 hrs by macrodilution method; format: functional
Enterococcus faecalis [12] = assay: Antibacterial activity against atlA-deficient Enterococcus faecalis JH2-2 by macrodilution method; format: functional
Enterococcus faecalis [13] = assay: Antibacterial activity against atlA-deficient Enterococcus faecalis JH2-2 assessed as decrease in decrease in bacterial count at 2 ug/ml after 3 hrs by macrodilution method; format: functional
Enterococcus faecalis [14] = assay: Antibacterial activity against atlA-deficient Enterococcus faecalis JH2-2 assessed as decrease in decrease in bacterial count at 2 ug/ml after 24 hrs by macrodilution method; format: functional
Enterococcus faecalis [15] = assay: Antibacterial activity against atlA-deficient Enterococcus faecalis JH2-2 infected in New Zealand White rabbit assessed as bacterial count per gram vegetation at 50 mg/kg, im TID for 3 days administered 48 hrs post bacterial challenge (reference value: 8.34+/-1.66 log10 CFU/g); format: functional; conditions: route intramuscular

CC1(C)S[C@@H]2[C@H](NC(=O)[C@H](N)c3ccc(O)cc3)C(=O)N2[C@H]1C(=O)O [AMOXICILLIN]
MBC (Enterococcus faecalis [1]): 2 µg/mL (≈ 5.47 µM) | MIC (Enterococcus faecalis [1]): 0.5 µg/mL (≈ 1.37 µM) | Activity (Enterococcus faecalis [2]): Active | log10CFU/ml (Enterococcus faecalis [3]): 2.57 | log10CFU/ml (Enterococcus faecalis [4]): 3.93 | Activity (Enterococcus faecalis [5]): Active | log10CFU/g (Enterococcus faecalis [6]): 7.69 | Ratio (Enterococcus faecalis [7]): >=32 | Activity (Enterococcus faecalis [8]): >=99.9% | log10CFU/ml (Enterococcus faecalis [9]): 7.82 | Ratio (Enterococcus faecalis [10]): 4 | log10CFU/ml (Enterococcus faecalis [11]): 5.59 | MBC (Enterococcus faecalis [12]): > 1020 µg/mL | MIC (Enterococcus faecalis [12]): 1 µg/mL (≈ 2.74 µM) | log10CFU/ml (Enterococcus faecalis [13]): 1.5 | log10CFU/ml (Enterococcus faecalis [14]): 6.46 | log10CFU/g (Enterococcus faecalis [15]): 8.55
